Measurements published in patent US12685735B2 (Foghorn Therapeutics Inc., priority 2020, dated 2026).

Experiments:
BRM = BRM (Homo sapiens, UniProt P51531); assay: ATPase catalytic activity assay of BRM (ADP-Glo); type: biochemical; settings: for IC50: read-out: BRM IC50 (μM)*
Outline: (§1)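 Luminescent ADP-Glo readout of ADP generated by ATP hydrolysis. Post-reaction: ATP depletion reagent, RT 40 min; detection reagent converting ADP→ATP, RT 60 min; luminescence read.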

BRG-1 = BRG-1 (Homo sapiens, UniProt P51532); assay: ATPase catalytic activity assay of BRG-1 (ADP-Glo); type: biochemical; settings: ATPase catalytic activity, ADP-Glo; for IC50: read-out: BRG1 IC50 (μM)*; for Emax: read-out: BRG1 Max % Inhibition
Outline: as §1

Sequence of BRM (P51531 whole entry): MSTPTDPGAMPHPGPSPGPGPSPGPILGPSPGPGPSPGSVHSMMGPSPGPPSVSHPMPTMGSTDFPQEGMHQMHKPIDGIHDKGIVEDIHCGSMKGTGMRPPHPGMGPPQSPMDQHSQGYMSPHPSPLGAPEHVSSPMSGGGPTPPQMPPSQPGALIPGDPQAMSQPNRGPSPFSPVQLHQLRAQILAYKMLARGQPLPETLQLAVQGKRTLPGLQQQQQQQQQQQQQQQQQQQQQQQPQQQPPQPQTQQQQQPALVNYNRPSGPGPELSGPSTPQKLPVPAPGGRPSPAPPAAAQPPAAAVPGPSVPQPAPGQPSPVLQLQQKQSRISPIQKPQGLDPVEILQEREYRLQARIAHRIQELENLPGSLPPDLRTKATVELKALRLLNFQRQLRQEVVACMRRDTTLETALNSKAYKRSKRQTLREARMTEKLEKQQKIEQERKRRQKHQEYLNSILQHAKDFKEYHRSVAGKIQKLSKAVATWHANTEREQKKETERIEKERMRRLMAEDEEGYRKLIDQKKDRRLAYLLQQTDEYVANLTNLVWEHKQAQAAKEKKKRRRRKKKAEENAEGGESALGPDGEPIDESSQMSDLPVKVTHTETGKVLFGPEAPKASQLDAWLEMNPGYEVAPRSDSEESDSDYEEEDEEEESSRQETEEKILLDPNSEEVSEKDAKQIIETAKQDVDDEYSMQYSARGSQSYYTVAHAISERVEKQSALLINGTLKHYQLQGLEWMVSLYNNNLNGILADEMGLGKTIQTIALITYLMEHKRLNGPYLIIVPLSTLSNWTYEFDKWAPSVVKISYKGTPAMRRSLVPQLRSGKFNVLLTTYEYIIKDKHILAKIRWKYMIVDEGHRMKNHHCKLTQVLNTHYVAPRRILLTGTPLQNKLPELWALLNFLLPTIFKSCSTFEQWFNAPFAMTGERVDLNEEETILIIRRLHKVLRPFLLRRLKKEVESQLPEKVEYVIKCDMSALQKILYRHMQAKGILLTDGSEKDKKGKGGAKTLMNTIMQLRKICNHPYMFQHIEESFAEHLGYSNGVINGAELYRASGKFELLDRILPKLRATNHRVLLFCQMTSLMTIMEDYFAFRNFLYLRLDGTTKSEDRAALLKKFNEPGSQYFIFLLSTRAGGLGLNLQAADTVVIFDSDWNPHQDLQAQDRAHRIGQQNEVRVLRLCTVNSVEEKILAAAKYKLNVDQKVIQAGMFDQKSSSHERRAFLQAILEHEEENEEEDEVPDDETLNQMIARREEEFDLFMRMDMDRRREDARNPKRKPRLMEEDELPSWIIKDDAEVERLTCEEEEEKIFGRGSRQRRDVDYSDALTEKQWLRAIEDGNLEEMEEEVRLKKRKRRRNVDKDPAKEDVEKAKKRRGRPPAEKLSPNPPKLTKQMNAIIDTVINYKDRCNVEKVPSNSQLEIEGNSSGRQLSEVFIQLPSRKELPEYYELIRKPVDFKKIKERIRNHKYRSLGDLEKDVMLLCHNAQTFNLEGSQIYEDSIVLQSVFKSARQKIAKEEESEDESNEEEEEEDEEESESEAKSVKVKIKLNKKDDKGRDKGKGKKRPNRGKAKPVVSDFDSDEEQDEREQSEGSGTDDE
Sequence of BRG-1 (P51532 whole entry): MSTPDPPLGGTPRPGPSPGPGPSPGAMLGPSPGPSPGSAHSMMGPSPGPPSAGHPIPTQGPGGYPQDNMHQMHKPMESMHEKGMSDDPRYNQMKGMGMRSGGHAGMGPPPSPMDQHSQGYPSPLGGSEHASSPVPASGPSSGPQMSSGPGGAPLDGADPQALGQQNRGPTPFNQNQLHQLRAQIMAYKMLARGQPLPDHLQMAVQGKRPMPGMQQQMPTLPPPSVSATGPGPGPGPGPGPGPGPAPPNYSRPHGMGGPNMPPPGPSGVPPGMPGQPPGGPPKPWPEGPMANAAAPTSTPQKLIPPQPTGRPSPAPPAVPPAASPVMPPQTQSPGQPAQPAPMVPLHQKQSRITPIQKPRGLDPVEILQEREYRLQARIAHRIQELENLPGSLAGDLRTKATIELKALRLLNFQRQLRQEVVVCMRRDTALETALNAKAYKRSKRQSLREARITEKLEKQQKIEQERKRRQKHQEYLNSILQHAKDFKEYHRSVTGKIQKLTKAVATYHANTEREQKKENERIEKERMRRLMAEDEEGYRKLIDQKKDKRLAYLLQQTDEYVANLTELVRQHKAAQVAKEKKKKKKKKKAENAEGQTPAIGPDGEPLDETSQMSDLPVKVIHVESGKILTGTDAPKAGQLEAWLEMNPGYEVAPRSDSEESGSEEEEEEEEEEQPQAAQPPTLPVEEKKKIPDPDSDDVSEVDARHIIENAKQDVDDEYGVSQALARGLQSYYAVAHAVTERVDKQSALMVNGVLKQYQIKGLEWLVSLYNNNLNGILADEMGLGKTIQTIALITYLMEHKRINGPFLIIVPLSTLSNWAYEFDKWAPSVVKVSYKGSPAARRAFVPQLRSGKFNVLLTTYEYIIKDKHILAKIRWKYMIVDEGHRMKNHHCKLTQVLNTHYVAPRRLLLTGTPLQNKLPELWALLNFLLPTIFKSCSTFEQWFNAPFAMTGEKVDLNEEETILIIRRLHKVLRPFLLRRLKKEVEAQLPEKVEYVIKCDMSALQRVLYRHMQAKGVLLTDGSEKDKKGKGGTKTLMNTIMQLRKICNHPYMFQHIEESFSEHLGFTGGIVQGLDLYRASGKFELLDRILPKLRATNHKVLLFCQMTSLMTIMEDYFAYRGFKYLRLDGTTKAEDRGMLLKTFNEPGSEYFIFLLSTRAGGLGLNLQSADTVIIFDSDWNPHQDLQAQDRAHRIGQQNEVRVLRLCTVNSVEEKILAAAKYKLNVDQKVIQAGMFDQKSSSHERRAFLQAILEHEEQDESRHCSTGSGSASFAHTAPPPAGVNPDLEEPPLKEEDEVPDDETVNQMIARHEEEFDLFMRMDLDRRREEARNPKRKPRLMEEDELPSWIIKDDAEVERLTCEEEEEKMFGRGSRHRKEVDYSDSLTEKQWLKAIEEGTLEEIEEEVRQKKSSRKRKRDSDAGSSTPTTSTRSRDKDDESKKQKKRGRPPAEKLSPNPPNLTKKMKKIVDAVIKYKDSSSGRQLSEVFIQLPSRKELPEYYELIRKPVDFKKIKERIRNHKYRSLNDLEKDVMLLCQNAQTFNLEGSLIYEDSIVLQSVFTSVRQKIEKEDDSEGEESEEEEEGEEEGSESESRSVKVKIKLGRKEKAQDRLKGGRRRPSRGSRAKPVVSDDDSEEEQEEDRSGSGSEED

BRM Max % Inhibition (BRM)	IC50 (BRM)	IC50 (BRG-1)	Emax (BRG-1)	SMILES
>95%	0.1 to 1 µM	1 to 5 µM	> 85%	C[C@@]1(F)COCc2ccc(C(=O)NCC(=O)Nc3nc(C4CCOCC4)cs3)cc21 [Compound 297, (S)-4-fluoro-4-methyl-N-(2-oxo-2-((4-(tetrahydro-2H-pyran-4-yl)thiazol-2-yl)amino)ethyl)isochromane-6-carboxamide]
>95%	< 0.1 µM	0.1 to 1 µM	> 95%	C[C@@H]1CN(c2cccc(-c3csc(NC(=O)CNC(=O)c4ccc5c(c4)C4(COC5)COC4)n3)n2)C[C@H](C)O1 [Compound 300, N-(2-((4-(6-((cis)-2,6-dimethylmorpholino)pyridin-2-yl)thiazol-2-yl)amino)-2-oxoethyl)spiro[isochromane-4,3′-oxetane]-6-carboxamide]
>95%	< 0.1 µM	0.1 to 1 µM	> 95%	C[C@@]1(F)COCc2ccc(C(=O)NCC(=O)Nc3nc(-c4ccccc4)cs3)cc21 [Compound 303, (S)-4-fluoro-4-methyl-N-(2-oxo-2-((4-phenylthiazol-2-yl)amino)ethyl)isochromane-6-carboxamide]
>95%	0.1 to 1 µM	1 to 5 µM	> 95%	C[C@@H]1CN(c2cccc(-c3csc(NC(=O)CNC(=O)c4cccc(C5(F)COCC5O)c4)n3)n2)C[C@H](C)O1 (stereo partly drawn) [Compound 304, N-(2-((4-(6-((cis)-2,6-dimethylmorpholino)pyridin-2-yl)thiazol-2-yl)amino)-2-oxoethyl)-3-(3-fluoro-4-hydroxytetrahydrofuran-3-yl)benzamide]
>95%	< 0.1 µM	0.1 to 1 µM	> 95%	C[C@@]1(C#N)COCc2ccc(C(=O)NCC(=O)Nc3nc(-c4cccc(C56CCOCC5C6)c4)cs3)cc21 (stereo partly drawn) [Compound 305, (R)-N-(2-((4-(3-(3-oxabicyclo[4.1.0]heptan-6-yl)phenyl)thiazol-2-yl)amino)-2-oxoethyl)-4-cyano-4-methylisochromane-6-carboxamide]
>95%	0.1 to 1 µM	1 to 5 µM	> 95%	C[C@@H]1CN(c2cccc(-c3csc(NC(=O)CNC(=O)c4cccc(C5(C(F)F)CCCO5)c4)n3)c2)C[C@H](C)O1 (stereo partly drawn) [Compound 306, 3-(2-(difluoromethyl)tetrahydrofuran-2-yl)-N-(2-((4-(3-((cis)-2,6-dimethylmorpholino)phenyl)thiazol-2-yl)amino)-2-oxoethyl)benzamide]
>95%	< 0.1 µM	0.1 to 1 µM	> 95%	COc1cccc(-c2csc(NC(=O)[C@H](C)NC(=O)c3ccc4c(c3)[C@](C)(F)COC4)n2)c1 [Compound 309, (S)-4-fluoro-N-((S)-1-((4-(3-methoxyphenyl)thiazol-2-yl)amino)-1-oxopropan-2-yl)-4-methylisochromane-6-carboxamide]
>95%	< 0.1 µM	0.1 to 1 µM	> 95%	C[C@@H]1CN(c2cccc(-c3csc(NC(=O)CNC(=O)c4ccc5c(c4)C(C)(C#N)CNC5)n3)c2)C[C@H](C)O1 (stereo partly drawn) [Compound 310, 4-cyano-N-(2-((4-(3-((cis)-2,6-dimethylmorpholino)phenyl)thiazol-2-yl)amino)-2-oxoethyl)-4-methyl-1,2,3,4-tetrahydroisoquinoline-6-carboxamide]
>95%	0.1 to 1 µM	1 to 5 µM	> 95%	COc1cccc(-c2csc(NC(=O)CNC(=O)c3ccc4c(c3)C(C)(C#N)CNC4)n2)c1 (centres unmarked) [Compound 311, 4-cyano-N-(2-((4-(3-methoxyphenyl)thiazol-2-yl)amino)-2-oxoethyl)-4-methyl-1,2,3,4-tetrahydroisoquinoline-6-carboxamide]
>95%	< 0.1 µM	0.1 to 1 µM	> 95%	COc1cccc(-c2csc(NC(=O)CNC(=O)c3ccc4c(c3)[C@](C)(F)COC4)n2)c1 [Compound 312, (S)-4-fluoro-N-(2-((4-(3-methoxyphenyl)thiazol-2-yl)amino)-2-oxoethyl)-4-methylisochromane-6-carboxamide]
>90%	0.1 to 1 µM	1 to 5 µM	> 90%	COc1cccc(-c2csc(NC(=O)CNC(=O)c3ccc4c(c3)C(C)(O)COC4)n2)c1 (centres unmarked) [Compound 313, 4-hydroxy-N-(2-((4-(3-methoxyphenyl)thiazol-2-yl)amino)-2-oxoethyl)-4-methylisochromane-6-carboxamide]
>90%	< 0.1 µM	0.1 to 1 µM	> 90%	C[C@@]1(F)COCc2ccc(C(=O)NCC(=O)Nc3nc(-c4cc(F)cc(C#N)c4)cs3)cc21 [Compound 314, (S)-N-(2-((4-(3-cyano-5-fluorophenyl)thiazol-2-yl)amino)-2-oxoethyl)-4-fluoro-4-methylisochromane-6-carboxamide]
>95%	< 0.1 µM	0.1 to 1 µM	> 95%	C[C@@]1(F)COCc2ccc(C(=O)NCC(=O)Nc3nc(-c4cccc(C#N)c4)cs3)cc21 [Compound 315, (S)-N-(2-((4-(3-cyanophenyl)thiazol-2-yl)amino)-2-oxoethyl)-4-fluoro-4-methylisochromane-6-carboxamide]
>95%	< 0.1 µM	< 0.1 µM	> 95%	C[C@@]1(C#N)COCc2ccc(C(=O)NCC(=O)Nc3nc(-c4cc(F)cc(C5CCO5)c4)cs3)cc21 (stereo partly drawn) [Compound 316, (R)-4-cyano-N-(2-((4-(3-fluoro-5-(oxetan-2-yl)phenyl)thiazol-2-yl)amino)-2-oxoethyl)-4-methylisochromane-6-carboxamide]
>95%	< 0.1 µM	1 to 5 µM	> 95%	C[C@@H]1CN(c2cccc(-c3csc(NC(=O)CNC(=O)c4cccc([C@]5(F)C[C@@](C)(O)C5)c4)n3)c2)C[C@H](C)O1 [Compound 317, N-(2-((4-(3-((cis)-2,6-dimethylmorpholino)phenyl)thiazol-2-yl)amino)-2-oxoethyl)-3-((1s,3s)-1-fluoro-3-hydroxy-3-methylcyclobutyl)benzamide]
>90%	0.1 to 1 µM	> 5 µM	> 90%	C[C@@H]1CN(c2cccc(-c3csc(NC(=O)CNC(=O)c4cccc(C5(F)CC6(COC6)C5)c4)n3)n2)C[C@H](C)O1 [Compound 318, N-(2-((4-(6-((cis)-2,6-dimethylmorpholino)pyridin-2-yl)thiazol-2-yl)amino)-2-oxoethyl)-3-(6-fluoro-2-oxaspiro[3.3]heptan-6-yl)benzamide]
>95%	< 0.1 µM	0.1 to 1 µM	> 95%	C[C@@H]1CN(c2cccc(-c3csc(NC(=O)CNC(=O)c4ccc5c(c4)[C@@H](C)COC5)n3)n2)C[C@H](C)O1 [Compound 320, (R)-N-(2-((4-(6-((cis)-2,6-dimethylmorpholino)pyridin-2-yl)thiazol-2-yl)amino)-2-oxoethyl)-4-methylisochromane-6-carboxamide]
>90%	< 0.1 µM	0.1 to 1 µM	> 90%	C[C@@H]1CN(c2cccc(-c3csc(NC(=O)CNC(=O)c4ccc5c(c4)[C@H](C)COC5)n3)n2)C[C@H](C)O1 [Compound 321, (S)-N-(2-((4-(6-((cis)-2,6-dimethylmorpholino)pyridin-2-yl)thiazol-2-yl)amino)-2-oxoethyl)-4-methylisochromane-6-carboxamide]
>95%	< 0.1 µM	0.1 to 1 µM	> 95%	C[C@@]1(C#N)COCc2ccc(C(=O)NCC(=O)Nc3nc(-c4cccc(F)c4)cs3)cc21 [Compound 322, (R)-4-cyano-N-(2-((4-(3-fluorophenyl)thiazol-2-yl)amino)-2-oxoethyl)-4-methylisochromane-6-carboxamide]
>95%	< 0.1 µM	0.1 to 1 µM	> 95%	C[C@@]1(C#N)COCc2ccc(C(=O)NCC(=O)Nc3nc(-c4ccccc4)cs3)cc21 [Compound 323, (R)-4-cyano-4-methyl-N-(2-oxo-2-((4-phenylthiazol-2-yl)amino)ethyl)isochromane-6-carboxamide]
>95%	< 0.1 µM	0.1 to 1 µM	> 95%	C[C@@H]1CN(c2cccc(-c3csc(NC(=O)CNC(=O)c4ccc5c(c4)C(O)(C(F)F)COC5)n3)c2)C[C@H](C)O1 (stereo partly drawn) [Compound 326, 4-(difluoromethyl)-N-(2-((4-(3-((cis)-2,6-dimethylmorpholino)phenyl)thiazol-2-yl)amino)-2-oxoethyl)-4-hydroxyisochromane-6-carboxamide]
>95%	< 0.1 µM	0.1 to 1 µM	> 95%	C[C@@]1(C#N)COCc2ccc(C(=O)NCC(=O)Nc3nc(-c4cccc(N5CCC56COC6)c4)cs3)cc21 [Compound 328, (R)-N-(2-((4-(3-(6-oxa-1-azaspiro[3.3]heptan-1-yl)phenyl)thiazol-2-yl)amino)-2-oxoethyl)-4-cyano-4-methylisochromane-6-carboxamide]
>95%	< 0.1 µM	< 0.1 µM	> 95%	C[C@@H]1CN(c2cccc(-c3csc(NC(=O)CNC(=O)c4ccc5c(c4)C(F)(C(F)F)COC5)n3)c2)C[C@H](C)O1 (stereo partly drawn) [Compound 329, 4-(difluoromethyl)-N-(2-((4-(3-((cis)-2,6-dimethylmorpholino)phenyl)thiazol-2-yl)amino)-2-oxoethyl)-4-fluoroisochromane-6-carboxamide]
